Measured values from patent US20230416330A1, “Optimized GIP Peptide Analogues” (Antag Therapeutics ApS, priority 2019, published 2023).
Non-standard residues stand in square brackets, D forms with d. Residues, ends and D or L forms follow the SMILES beside them. *: point of attachment. C16 diacid = O=C(O)CCCCCCCCCCCCCCC(=O)*; Aib = CC(C)(N)C(=O)O

How the values were obtained:
[1] = Physical stability: fibril formation in Thioflavin T (ThT) assay with agitation; assay type: physicochemical; settings: 25° C., agitation
Outline: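 Read-out is continuous ThT fluorescence at 486 nm, with lag time taken where signal reaches 10% between pre- and post-transition baselines. Filtered samples (1, 5, 7.5 or 15 mg/ml; pH 7.4 phosphate buffer or NaOH-adjusted water) were stressed at 25° C. by orbital rotation at 300 rpm with one silica bead per well.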

[2] = Solubility by visual inspection of peptide solutions; assay type: physicochemical
Outline: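 Solubility scored by eye: clear, colorless appearance after gentle mixing. Samples prepared at 1, 5, 7.5 or 15 mg/ml in either pH 7.4 water (NaOH-adjusted) or 50 mM sodium phosphate buffer, pH 7.4.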

human GIP receptor = biological target: T1, human GIP receptor (Homo sapiens, UniProt P48546); experiment: cAMP assay Alternative 1 (CisBio assay), GIPR antagonism; assay type: cell-based; settings: for cAMP antagonism % inhib: Table 2B, % inhibition of Emax
T1 construct: host or cells: HEK-293 cells, transient transfection (Lipofectamine 2000), cDNA in pCMV-Script vector
T1 sequence (P48546 22-466): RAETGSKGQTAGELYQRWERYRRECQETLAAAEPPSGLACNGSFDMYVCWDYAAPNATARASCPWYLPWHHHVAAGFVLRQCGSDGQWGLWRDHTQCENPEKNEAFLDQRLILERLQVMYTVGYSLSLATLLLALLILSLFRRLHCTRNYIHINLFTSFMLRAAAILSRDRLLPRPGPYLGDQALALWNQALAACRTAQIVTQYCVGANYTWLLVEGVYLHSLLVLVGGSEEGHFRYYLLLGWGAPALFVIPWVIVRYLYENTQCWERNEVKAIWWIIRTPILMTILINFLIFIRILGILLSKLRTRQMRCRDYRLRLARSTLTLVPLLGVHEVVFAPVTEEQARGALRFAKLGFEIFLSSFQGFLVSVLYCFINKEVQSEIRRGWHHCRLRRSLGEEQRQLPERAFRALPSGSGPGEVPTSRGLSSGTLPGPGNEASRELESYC
Method: HEK293 cells were cultured in 10% CO2 and 37° C. in Dulbecco's modified Eagle's medium supplemented with 10% fetal bovine serum, 2 mM glutamine, 180 units/ml penicillin, and 45 µg/ml streptomycin. Transient transfection with hGIPR for the CisBio assay from Table 2C was performed by using Lipofectamine 2000.
The in vitro functional activity of compounds towards human GIP receptor can also be determined in HEK-293 cells transiently expressing the receptor. On the day of the assay, cells were resuspended in HBSS buffer (Gibco, 14025-50) supplemented with […] (Gibco, 15630-106), 0.1% Pluronic F-68 (Gibco, 24040-032) and 0.1% casein (Sigma, C4765), and plated in 384-well plates at a density of 5000 cells/well. The GIP peptide analogues of the present disclosure were diluted in HBSS buffer supplemented with 20 mM HEPES, 0.1% pluronic, 0.1% casein and 500 uM IBMX. […] The resulting decrease in intracellular cAMP was quantitatively determined using the CisBio cAMP Dynamic 2 HTRF Assay Kit. The assay is based on a competition between native cAMP produced by cells and cAMP labeled with the dye d2 for binding to a cryptate labeled antibody. The specific signal (i.e. energy transfer signal) is inversely proportional to the concentration of cAMP in the sample.
The cAMP-d2 conjugate and the antibody anti-cAMP-Cryptate, both diluted in lysis buffer provided in the kit, were added to the cells according to the manufacturer's protocol. The resulting competitive assay was incubated for 60 minutes at room temperature, and the signal was detected by using a PerkinElmer Envision® instrument with excitation at 320 nm and emission at 665 nm and 620 nm. The HTRF ratio (emission at 665 nm/620 nm*10,000) is inversely proportional to the amount of cAMP present and is converted to nM cAMP per well using a cAMP standard curve. The dose-response curves were fitted using the non-linear regression analysis (four-logistic parameter equation) in GraphPad Prism, whereby pIC50 values were estimated. To test for agonistic properties at the GIP receptor, compounds were diluted and added to cells as described above and incubated for 30 min at 37° C. The resulting increase in intracellular cAMP was determined using the CisBio cAMP Dynamic 2 HTRF Assay Kit as described above.
The dose-response curves were fitted using the non-linear regression analysis (four-logistic parameter equation) in GraphPad Prism, whereby pIC50 values were estimated.

CC[C@H](C)[C@H](NC(=O)[C@H](CCCCN)NC(=O)[C@H](CC(=O)O)NC(=O)[C@H](CCSC)NC(=O)C(C)(C)NC(=O)[C@@H](NC(=O)[C@H](CO)NC(=O)[C@H](Cc1ccc(O)cc1)NC(=O)[C@H](CC(=O)O)NC(=O)[C@H](CO)NC(=O)[C@@H](NC(=O)[C@H](Cc1ccccc1)NC(=O)[C@@H](NC(=O)CNC(=O)[C@@H](N)CCC(=O)O)[C@@H](C)O)[C@@H](C)CC)[C@@H](C)CC)C(=O)N[C@@H](CCCCNC(=O)CCCCCCCCCCCCCCC(=O)O)C(=O)N[C@@H](CCC(N)=O)C(=O)N[C@@H](CCC(N)=O)C(=O)N[C@@H](CC(=O)O)C(=O)N[C@@H](Cc1ccccc1)C(=O)N[C@H](C(=O)N[C@@H](CCC(=O)O)C(=O)N[C@@H](Cc1c[nH]c2ccccc12)C(=O)N[C@@H](CC(C)C)C(=O)N[C@@H](CC(C)C)C(=O)N[C@@H](C)C(=O)N[C@@H](CCC(N)=O)C(=O)N[C@@H](CCCCN)C(=O)N1CCC[C@H]1C(=O)N[C@@H](CO)C(=O)N[C@@H](CO)C(=O)NCC(=O)N[C@@H](C)C(=O)N1CCC[C@H]1C(=O)N1CCC[C@H]1C(=O)N1CCC[C@H]1C(=O)N[C@@H](CO)C(=O)O)C(C)C [AT665] (H-EGTFISDYSI[Aib]MDKIK(C16 diacid)QQDFVEWLLAQKPSSGAPPPS-OH; N-terminus assumed)
Avr lag time (h) ([1]; 1 mg/ml, TFA, Phosphate (7.4)): fnd (Fnd = fibrils not detected within experiment time (96 hours) with agitation.) | Avr lag time (h) ([1]; 5 mg/ml, Na, MilliQ (8)): fnd (Fnd = fibrils not detected within experiment time (96 hours) with agitation.) | Avr lag time (h) ([1]; 7.5 mg/ml, Na, MilliQ (8)): fnd (Fnd = fibrils not detected within experiment time (96 hours) with agitation.) | Avr lag time (h) ([1]; 15 mg/ml, Na, MilliQ (8)): fnd (Fnd = fibrils not detected within experiment time (96 hours) with agitation.) | Visual appearance ([2]; 1 mg/ml, TFA, Phosphate (7.4)): Clear | Visual appearance ([2]; 7.5 mg/ml, Na, MilliQ (8)): Clear | Visual appearance ([2]; 15 mg/ml, Na, MilliQ (8)): Clear | IC50 (human GIP receptor): 0.15 nM | cAMP antagonism % inhib (human GIP receptor): 88%

CC[C@H](C)[C@H](NC(=O)[C@H](CCCCN)NC(=O)[C@H](CC(=O)O)NC(=O)[C@H](CC(C)C)NC(=O)C(C)(C)NC(=O)[C@@H](NC(=O)[C@H](CO)NC(=O)[C@H](Cc1ccc(O)cc1)NC(=O)[C@H](CC(=O)O)NC(=O)[C@H](CO)NC(=O)[C@@H](NC(=O)[C@H](Cc1ccccc1)NC(=O)[C@@H](NC(=O)CNC(=O)[C@@H](N)CCC(=O)O)[C@@H](C)O)[C@@H](C)CC)[C@@H](C)CC)C(=O)N[C@@H](CCCCNC(=O)CCCCCCCCCCCCCCC(=O)O)C(=O)N[C@@H](CCC(N)=O)C(=O)N[C@@H](CCC(N)=O)C(=O)N[C@@H](CC(=O)O)C(=O)N[C@@H](Cc1ccccc1)C(=O)N[C@H](C(=O)N[C@@H](CCC(=O)O)C(=O)N[C@@H](Cc1c[nH]c2ccccc12)C(=O)N[C@@H](CC(C)C)C(=O)N[C@@H](CC(C)C)C(=O)N[C@@H](C)C(=O)N[C@@H](CCC(N)=O)C(=O)N[C@@H](CCCCN)C(=O)N1CCC[C@H]1C(=O)N[C@@H](CO)C(=O)N[C@@H](CO)C(=O)NCC(=O)N[C@@H](C)C(=O)N1CCC[C@H]1C(=O)N1CCC[C@H]1C(=O)N1CCC[C@H]1C(=O)N[C@@H](CO)C(=O)O)C(C)C [AT666] (H-EGTFISDYSI[Aib]LDKIK(C16 diacid)QQDFVEWLLAQKPSSGAPPPS-OH; N-terminus assumed)
Avr lag time (h) ([1]; 1 mg/ml, TFA, Phosphate (7.4)): fnd (Fnd = fibrils not detected within experiment time (96 hours) with agitation.) | Visual appearance ([2]; 1 mg/ml, TFA, Phosphate (7.4)): Clear | cAMP antagonism % inhib (human GIP receptor): 89%

CC[C@H](C)[C@H](NC(=O)[C@H](CO)NC(=O)[C@H](Cc1ccc(O)cc1)NC(=O)[C@H](CC(=O)O)NC(=O)[C@H](CO)NC(=O)[C@@H](NC(=O)[C@H](Cc1ccccc1)NC(=O)[C@@H](NC(=O)CNC(=O)[C@@H](N)CCC(=O)O)[C@@H](C)O)[C@@H](C)CC)C(=O)N[C@@H](C)C(=O)N[C@@H](CC(C)C)C(=O)N[C@@H](CC(=O)O)C(=O)N[C@@H](CCCCN)C(=O)N[C@H](C(=O)N[C@@H](CCCCNC(=O)CCCCCCCCCCCCCCC(=O)O)C(=O)N[C@@H](CCC(N)=O)C(=O)N[C@@H](CCC(N)=O)C(=O)N[C@@H](CC(=O)O)C(=O)N[C@@H](Cc1ccccc1)C(=O)N[C@H](C(=O)N[C@@H](CCC(=O)O)C(=O)N[C@@H](Cc1c[nH]c2ccccc12)C(=O)N[C@@H](CC(C)C)C(=O)N[C@@H](CC(C)C)C(=O)N[C@@H](C)C(=O)N[C@@H](CCC(N)=O)C(=O)N[C@@H](CCCCN)C(=O)N1CCC[C@H]1C(=O)N[C@@H](CO)C(=O)N[C@@H](CO)C(=O)NCC(=O)N[C@@H](C)C(=O)N1CCC[C@H]1C(=O)N1CCC[C@H]1C(=O)N1CCC[C@H]1C(=O)N[C@@H](CO)C(=O)O)C(C)C)[C@@H](C)CC [AT668] (H-EGTFISDYSIALDKIK(C16 diacid)QQDFVEWLLAQKPSSGAPPPS-OH; N-terminus assumed)
Avr lag time (h) ([1]; 1 mg/ml, TFA, Phosphate (7.4)): fnd (Fnd = fibrils not detected within experiment time (96 hours) with agitation.) | Visual appearance ([2]; 1 mg/ml, TFA, Phosphate (7.4)): Clear | cAMP antagonism % inhib (human GIP receptor): 92%

CC[C@H](C)[C@H](NC(=O)[C@H](CCCCN)NC(=O)[C@H](CCC(=O)O)NC(=O)[C@H](CC(C)C)NC(=O)C(C)(C)NC(=O)[C@@H](NC(=O)[C@H](CO)NC(=O)[C@H](Cc1ccc(O)cc1)NC(=O)[C@H](CCC(=O)O)NC(=O)[C@H](CO)NC(=O)[C@@H](NC(=O)[C@H](Cc1ccccc1)NC(=O)[C@@H](NC(=O)CNC(=O)[C@@H](N)CCC(=O)O)[C@@H](C)O)[C@@H](C)CC)[C@@H](C)CC)C(=O)N[C@@H](CCCCNC(=O)CCCCCCCCCCCCCCC(=O)O)C(=O)N[C@@H](CCC(N)=O)C(=O)N[C@@H](CCC(N)=O)C(=O)N[C@@H](CCC(=O)O)C(=O)N[C@@H](Cc1ccccc1)C(=O)N[C@H](C(=O)N[C@@H](CCC(=O)O)C(=O)N[C@@H](Cc1c[nH]c2ccccc12)C(=O)N[C@@H](CC(C)C)C(=O)N[C@@H](CC(C)C)C(=O)N[C@@H](C)C(=O)N[C@@H](CCC(N)=O)C(=O)N[C@@H](CCCCN)C(=O)N1CCC[C@H]1C(=O)N[C@@H](CO)C(=O)N[C@@H](CO)C(=O)NCC(=O)N[C@@H](C)C(=O)N1CCC[C@H]1C(=O)N1CCC[C@H]1C(=O)N1CCC[C@H]1C(=O)N[C@@H](CO)C(=O)O)C(C)C [AT673] (H-EGTFISEYSI[Aib]LEKIK(C16 diacid)QQEFVEWLLAQKPSSGAPPPS-OH; N-terminus assumed)
Avr lag time (h) ([1]; 1 mg/ml, TFA, Phosphate (7.4)): fnd (Fnd = fibrils not detected within experiment time (96 hours) with agitation.) | Avr lag time (h) ([1]; 5 mg/ml, Na, MilliQ (8)): fnd (Fnd = fibrils not detected within experiment time (96 hours) with agitation.) | Avr lag time (h) ([1]; 7.5 mg/ml, Na, MilliQ (8)): fnd (Fnd = fibrils not detected within experiment time (96 hours) with agitation.) | Avr lag time (h) ([1]; 15 mg/ml, Na, MilliQ (8)): fnd (Fnd = fibrils not detected within experiment time (96 hours) with agitation.) | Visual appearance ([2]; 1 mg/ml, TFA, Phosphate (7.4)): Clear | Visual appearance ([2]; 5 mg/ml, Na, MilliQ (8)): Clear | Visual appearance ([2]; 7.5 mg/ml, Na, MilliQ (8)): Clear | Visual appearance ([2]; 15 mg/ml, Na, MilliQ (8)): Clear | cAMP antagonism % inhib (human GIP receptor): 94%
